Settings: in water

NCCS(=O)(=O)O
Settings	solubility (mole fraction)
278.15 K	0.00667
283.15 K	0.00809
288.15 K	0.0101
293.15 K	0.0121
298.15 K	0.0141
303.15 K	0.0172
308.15 K	0.0202
313.15 K	0.0232
318.15 K	0.0264
323.15 K	0.0318

Source: BigSolDB 2.1
